From article PMC7139703, “Thiopurine Derivative-Induced Fpg/Nei DNA Glycosylase Inhibition: Structural, Dynamic and Functional Insights” (International Journal of Molecular Sciences, 2020)
Read-outs that look alike come from different tables or passages of the source.

Target: T1, LlFpg/DNA complex C1 (Lactococcus lactis subsp. cremoris, UniProt P42371)
T1 construct: made in house; host or cells: E. coli BH540 (fpg defective)
Assay: EMSA, Fpg DNA binding to 14-mer [THF:C] duplex, complex C1 (lesion recognition complex, Fpg/DNA 1/1)
Conditions: for IC50: 0.1 nM 14-mer [THF:C], preformed complex; for IC50 / number of TXn equivalents per one protein equivalent for 50% inhibition of DNA binding activity, C1: 0.25 nM Fpg; for number of TXn equivalents per one protein equivalent for 50% inhibition of DNA binding activity, C1: value in parentheses; for effect on stability of complex C1 in the presence of TCEP: [1/1] molar ratio TCEP/compound (1 mM each), Figure S6
Text: To complement this study, we examined the effect of TXn on the binding of Fpg to a short DNA duplex containing a tetrahydrofuran (THF), a non-cleavable AP site analog. The enzyme specifically recognizes THF and forms a stable abortive complex with DNA [18, 34, 35, 36]. […] A representative titration experiment (with and without TCEP) of the 14-mer [THF:C] Fpg formed two stable complexes with this short DNA probe that were easily observed by EMSA: a high-affinity complex C1 corresponding to the lesion recognition complex (LRC), with nanomolar affinity, and a complex C2 only observed at higher Fpg concentrations. C2 results in C1 titration by a second Fpg molecule. This finding illustrates that the crystal structure of Fpg bound to 8-oxoG-carbanucleotide-containing DNA [38] (Figure S5). The stability of each preformed complex was then examined by EMSA in the presence of 2TX or TXn. […] The enzyme inactivation mediated by 2TX through ZnF oxidation that directly affects the DNA binding properties of the enzyme is also in agreement with this last observation.
Figure 2 The effect of 2TX and TXn on Fpg DNA binding to abasic site-containing DNA. A 14-mer DNA duplex containing a tetrahydrofurane (THF) site as an abasic site analog was incubated with a limiting Fpg concentration (0.25 nM) with and without increasing concentrations of TXn. Incubation mixtures were then analyzed by electrophoretic mobility shift assay (EMSA), as described in the ‘Materials and Methods’. (a) Titration experiments with (+) and without (-) 2 mM tris(2-carboxyethyl)phosphine hydrochloride (TCEP) C1 and C2 are for the [1/1] and [2/1] Fpg/DNA complexes, respectively (see detailed in the text). (b) Fpg DNA binding concentration-dependence for 2TX and the more efficient TXn inhibitors. A representative EMSA autoradiography with 0.25 nM of Fpg alone (lane no) and 0.5, 2.5, 5, 10, 20, 40, 50, 250, 1000 µM is shown in the upper panel. IC50app^B corresponds to the TXn amount needed to halve the C1 complex formation and was extracted from the dose-response curves (lower panel; Table 1).
The DNA binding activity was measured using EMSA [37]. Briefly, 0.1 nM of the 5′-labeled 14-mer [THF:C] (see above) was incubated with the enzyme at 4 °C for 30 min in 25 mM HEPES/NaOH (pH 7.5), 150 mM NaCl, 5% glycerol, 0.1 mg/mL BSA and 8% DMSO. The incubation mixture was then loaded onto a native 10% polyacrylamide gel (Acryl/Bis 19/1) and electrophoresed at 25 V/cm for 90 min at 4 °C. After electrophoresis, the gels were dried and exposed overnight for autoradiography using a Typhoon imager and quantified with ImageQuant software. To evaluate the inhibitor effect of 2TX/TXn on the DNA binding activity of each Fpg/Nei enzyme, we first determined the experimental conditions required to bind 50% of the DNA probes without an inhibitor in the presence of 8% DMSO (limiting enzyme concentration). Under these conditions, we obtained the half-maximal DNA binding 0.25, 7 and 5 nM of Fpg, hNeil1 and mvNei1. We used this limited enzyme concentrations to evaluate the inhibitor effect of 2TX/TXn on the enzyme DNA binding activity. This effect was determined by the addition of the thio-compound in the pre-equilibrium mixture of the enzyme and DNA probe (30 min) and incubated for an additional 30 min at 4 °C. For the best inhibitors of Fpg, a dose-response curve was established from at least three independent experiments and the IC50 was determined (IC50^B, Table 1).

[1] = DNA binding at 4 °C, read-out: IC50app^B (Fpg DNA binding) C1
[2] = IC50app^B (Fpg DNA binding) C1, DNA binding at 4 °C

T1 sequence (P42371 2-273, one chain of several): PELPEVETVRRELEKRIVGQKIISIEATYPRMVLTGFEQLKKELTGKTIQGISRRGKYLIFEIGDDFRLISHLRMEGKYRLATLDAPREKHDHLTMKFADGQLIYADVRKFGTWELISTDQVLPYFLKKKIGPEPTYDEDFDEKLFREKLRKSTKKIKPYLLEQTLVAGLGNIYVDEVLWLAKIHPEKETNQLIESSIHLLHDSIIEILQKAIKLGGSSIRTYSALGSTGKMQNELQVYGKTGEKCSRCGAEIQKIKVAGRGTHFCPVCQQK

## O=c1[nH]c(=S)[nH]c2nc[nH]c12 [Compound 2TX, 2-thioxanthine, reference compound]
[1]
  IC50: 113 ± 17 µM

## O=c1[nH]c(=S)[nH]c2[nH]c(=S)[nH]c12 [TX19]
[1]
  IC50: 17.1 ± 2.4 µM
  number of TXn equivalents per one protein equivalent for 50% inhibition of DNA binding activity, C1: 68

## FC(F)(F)c1nc(S)c2nc[nH]c2n1 [TX13, 2-trifluoromethyl-6-thiopurine]
[1]
  IC50: 6.1 ± 0.5 µM
  effect on stability of complex C1 in the presence of TCEP: remained stable
  number of TXn equivalents per one protein equivalent for 50% inhibition of DNA binding activity, C1: 98

## O=c1[nH]c2[nH]c(=S)[nH]c(=O)c2[nH]1 [TX14, 2-thio-6,8-dioxopurine]
[2]
  IC50: 25.1 ± 2.4 µM
  number of TXn equivalents per one protein equivalent for 50% inhibition of DNA binding activity, C1: 100

## Nc1ncnc2[nH]c(S)nc12 [TX27]
[2]
  IC50: 44.2 ± 8 µM
  effect on stability of complex C1 in the presence of TCEP: remained stable
  number of TXn equivalents per one protein equivalent for 50% inhibition of DNA binding activity, C1: 177
